What was measured:
[1] = system: ARE reporter gene (MMTV hormone response element); assay: ARE (MMTV hormone response element) luciferase reporter in C2C12 and C2C12.AR cells; type: cell-based
Text: The reporter genes pMAF3.1, pMAF2.4, pMAF948, pMAF400, and pMAF400-241 express firefly luciferase under the control of promoter regions of the human MAFbx gene and are described in Example 1. The rARC562G vector, encoding rat AR with a C562->G mutation in the first zinc binding module that disrupts binding of AR to DNA was described by Palvimo et al. (Mol Endocrinol 7: 1399-1407, 1993) pAR.4RKM (expressing AR with 4 R/K->M mutations in the nuclear localization sequence that is unable to enter the nucleus) and pAR.ABC (lacking the ligand binding domain) were described by Zhou et al. (J Biol Chem 269: 13115-13123, 1994). The pBabe.puro retroviral backbone described by Morgenstern and Land (Nucleic Acids Res 18: 3587-3596, 1990) was modified by introduction of a Not1 site. […]
Cells were seeded into wells of 24-well plates (5×10^5 cells/well) then maintained overnight in DMEM with 10% CDS-FBS. […] Cells were maintained for an additional 24 hours, at which time both firefly and renilla luciferase activity were determined using the Dual Luciferase Assay (Promega, Madison, Wis.) and a Berthold 96-well plate luminometer. […]
To determine whether C2C12 cells expressed AR, total RNA from these cells was extracted and analyzed by real-time PCR and compared to levels of AR mRNA in gastrocnemius muscle from male mice. […]

GR = conditions: Danhaive and Rousseau 1986; cited from earlier work
MuRF1 = assay: Acute denervation: MuRF1 mRNA in EDL and soleus (qPCR); type: in vivo, rat; conditions: nandrolone 1.5 mg/kg/wk 14 days
Procedure: (§1) Male Wistar rats weighing 250 gm (Taconic Farms, Germantown, N.Y.) were provided food and water ad libitum and were housed in a temperature and humidity controlled environment providing a 12:12 hour day-night cycle. For surgical procedures, animals were anesthetized with ketamine/xylazine. The left sciatic nerve was exposed by blunt dissection, and a 1 to 2 mm piece of this nerve was excised just below the level of the femoral head. A sham surgery was performed on the right hind limb in which the sciatic nerve was exposed but was not transected. Model 2002 Alzet pumps were implanted subcutaneously on the back. […] A pellet containing 15 mg of testosterone (Innovative Research of America, Sarasota, Fla.) administered as a continuous infusion (5 mg/wk), or a pellet containing placebo, was inserted into a subcutaneous pouch. […] Because testosterone is known to have anabolic actions (Ferrando et al., Am J Physiol Endocrinol Metab 282: E601-E607, 2002; Mauras et al., J Clin Endocrinol Metab 83: 1886-1892, 1998; Urban et al., Am J Physiol 269: E820-E826, 1995), reductions in levels of this hormone could affect muscle mass and confound interpretation of the results. Animals were euthanized 14 days later by inhalation of carbon dioxide. […]
(§2) Total RNA was extracted from skeletal muscle (20 mg) by homogenization in guanidine thiocyanate using a Polytron followed by extraction using phenol-chloroform (Chomczynski and Sacchi, Anal Biochem 162: 156-159, 1987). […] Total RNA was then eluted and quantified by absorbance at 260 nm. […] Levels of gene expression in the denervated muscle were expressed as fold induction relative to muscle from the sham-denervated leg of animals administered vehicle. […] Fold-induction was determined using the 2^−ΔΔCt method, using expression of 18S RNA as the normalization control. […]

IGF-1 = assay: Acute denervation: IGF-1 mRNA in EDL and soleus (qPCR); type: in vivo, rat; conditions: nandrolone 1.5 mg/kg/wk 14 days
Procedure: as §1, §2

[2] = Chronic denervation: gastrocnemius muscle weights; type: in vivo, rat
Procedure: Male Wistar rats weighing 200-250 gm (Taconic Farms, Germantown, N.Y.) were provided food and water ad libitum and were housed in a temperature and humidity controlled environment providing a 12:12 hour day-night cycle. For surgical procedures, animals were anesthetized with ketamine/xylazine. The left sciatic nerve was exposed by blunt dissection, and a 1 to 2 mm piece of this nerve was excised just below the level of the femoral head. A sham surgery was performed on the right hind limb in which the sciatic nerve was exposed but was not transected. Twenty eight days later, animals were anesthetized, and Alzet pumps were implanted subcutaneously on the back. […] Testosterone levels after replacement were approximately 15 nM, a high-normal range for rats of this age. Animals were sacrificed 3, 7 or 28 days after implantation of the miniosmotic pumps by inhalation of carbon dioxide. Gastrocnemius muscles were excised and weighed, then flash frozen on dry ice and stored at −80° C.

Row | SMILES | luciferase expression by ARE-Luc reporter ([1]; C2C12.AR cells (human AR)) | increase in luciferase expression over baseline ([1]; wild-type C2C12 cells, MMTV hormone response element reporter) | Kd (GR) | MuRF1 expression (MuRF1; denervated EDL) | MuRF1 expression (MuRF1; denervated soleus) | MuRF1 expression (MuRF1; sham-denervated soleus or EDL) | IGF-1 expression (IGF-1; denervated EDL) | IGF-1 expression (IGF-1; denervated or sham-denervated soleus) | IGF-1 expression (IGF-1; sham-denervated EDL) | weights of denervated muscles versus vehicle ([2]; after 3 days of nandrolone (31 days)) | increase in mass of muscles in the normal limb ([2]; nandrolone 0.75 mg/kg/wk plus testosterone from day 28, not significant)
1 | C[C@]12CC[C@H]3[C@@H](CCC4=CC(=O)CC[C@@]43C)[C@@H]1CC[C@@H]2O [testosterone] | marked increase | about 2 fold | ~0.2 µM |  |  |  |  |  |  |  | 
2 | C[C@]12CC[C@H]3[C@@H](CCC4=CC(=O)CC[C@@H]43)[C@@H]1CC[C@@H]2O [nandrolone] |  |  |  | significantly reduced | significantly decreased | did not significantly affect | significantly reduced | did not significantly affect | significantly reduced | similar | 2-5%
